The assay concerns the target T1, glucokinase (GK) (Homo sapiens, UniProt P35557).
T1 construct: I.D. No. 1 corresponds to residues 12-465 of glucokinase; made in house; host or cells: E. coli DH10b-T1r
T1 sequence (P35557 with tags, fused parts or gaps isoform P35557-2): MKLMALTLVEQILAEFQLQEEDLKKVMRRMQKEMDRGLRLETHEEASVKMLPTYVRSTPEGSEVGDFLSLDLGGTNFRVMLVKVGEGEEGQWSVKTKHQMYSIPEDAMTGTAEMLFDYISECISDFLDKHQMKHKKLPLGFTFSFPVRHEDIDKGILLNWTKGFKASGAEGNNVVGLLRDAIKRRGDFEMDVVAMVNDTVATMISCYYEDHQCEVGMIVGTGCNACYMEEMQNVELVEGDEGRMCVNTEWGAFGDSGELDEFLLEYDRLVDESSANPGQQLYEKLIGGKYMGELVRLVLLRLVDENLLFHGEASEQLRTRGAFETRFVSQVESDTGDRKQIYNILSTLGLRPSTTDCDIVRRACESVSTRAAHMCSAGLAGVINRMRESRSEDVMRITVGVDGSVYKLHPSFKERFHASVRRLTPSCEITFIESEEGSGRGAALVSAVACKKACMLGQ
The assay is described as follows: enzymatic glucokinase activity assay (ATP consumption, KinaseGlo luminescence). The class given is biochemical. As to conditions: recombinant GK residues 12-465; 5 μM ATP, 5 mM Glucose; Kact = concentration that displays 50% of the maximal increase in GK activity; read-out: pKact. From the text: The activity of compounds as glucokinase activators may be assayed in vitro, in vivo or in a cell line. Provided below is an enzymatic glucokinase activity assay.
Purified glucokinase may be obtained as follows. […] SEQ.
The expression of recombinant glucokinase protein may be carried out by transformation and growth of DH10b-T1r E. coli cells incorporating the (pFLAG-CTC) plasmid in LB media. Protein expression can be induced in this system by the addition of IPTG to the culture medium.
Recombinant protein may be isolated from cellular extracts by passage over Sepharose Q Fast Flow resin (Pharmacia). This partially purified GK extract may then be further purified by a second passage over Poros HQ 10 (Applied Biosystems). The purity of GK may be determined on denaturing SDS-PAGE gel. Purified GK may then be concentrated to a final concentration of 20.0 mg/ml. After flash freezing in liquid nitrogen, the proteins can be stored at −78° C. in a buffer containing 25 mM TRIS-HCl pH 7.6, 50 mM NaCl, and 0.5 mM TCEP.
The activation properties of compounds for GK may be determined using a black 384-well-plate format under the following reaction conditions: 25 mM Hepes pH 7.2, 25 mM NaCl, 10 mM MgCl2, 0.01% Brij35, 1 mM DTT, 5 μM ATP, 5 mM Glucose 2% DMSO. The amount of ATP consumed may be determined quantitatively by addition of equal volume of luciferase reagent (luciferase+beetle luciferin—KinaseGlo Luminescent Kinase Assay kit from Promega). The luminescence intensity may be measured by using the Analyst HT from LJL Biosystems.
The reaction mixture may then be incubated at room temperature for 60 min, and quenched and developed by addition of 10 μL of luciferase reagent. Luminescence intensities of the resulting reaction mixtures may be measured after a 10 min incubation at room temperature. The luminescence intensity may be measured by using the Analyst HT from LJL Biosystems.
pKact values may be calculated by non-linear curve fitting of the compound concentrations and luminescence intensities to a standard inhibition/activation equation.
A general note: In Kinase-Glo more light means more ATP remaining.

Counter-ions that a name gives are not always drawn.

`COc1ccc2nc(NC(=O)[C@H](CC3CCOCC3)n3ccc(S(=O)(=O)CCCO)cc3=O)sc2n1` [Example 72, (S)-2-(4-(3-hydroxypropylsulfonyl)-2-oxopyridin-1(2H)-yl)-N-(5-methoxythiazolo[5,4-b]pyridin-2-yl)-3-(tetrahydro-2H-pyran-4-yl)propanamide]: the EC50 fell in the range of 1.58 to 15.8 µM. As for `Cc1cc(S(=O)(=O)C2CCOCC2)cc(=O)n1C(CC1CCCC1)C(=O)Nc1ncc(Cl)s1` (stereo not drawn) [Example 174, N-(5-chlorothiazol-2-yl)-3-cyclopentyl-2-(6-methyl-2-oxo-4-(tetrahydro-2H-pyran-4-ylsulfonyl)pyridin-1(2H)-yl)propanamide], the figure is 1.58 to 15.8 µM; as for `Cc1occc1S(=O)(=O)c1cc(C)n([C@@H](CC2CCOCC2)C(=O)Nc2ncc(Cl)s2)c(=O)c1` [Example 64, (S)-N-(5-chlorothiazol-2-yl)-2-(6-methyl-4-(2-methylfuran-3-ylsulfonyl)-2-oxopyridin-1(2H)-yl)-3-(tetrahydro-2H-pyran-4-yl)propanamide], 1.58 to 15.8 µM. As for `O=C(Nc1ncc(Cl)s1)C(CC1CCOCC1)n1cc(S(=O)(=O)N2CCCC2)ccc1=O` (stereo not drawn) [Example 140, N-(5-chlorothiazol-2-yl)-2-(2-oxo-5-(pyrrolidin-1ylsulfonyl)pyridin-1(2H)-yl)-3-(tetrahydro-2H-pyran-4-yl)propanamide], the figure is 1.58 to 15.8 µM; as for `Cc1cc(S(=O)(=O)C2CCS(=O)(=O)CC2)cc(=O)n1C(CC1CCCCC1)C(=O)Nc1ncc(Cl)s1` (stereo not drawn) [Example 160, N-(5-chlorothiazol-2-yl)-2-(4-(1,1-dioxotetrahydrothiopyran-4-ylsulfonyl)-6-methyl-2-oxopyndin-1(2H)-yl)-3-cyclohexylpropanamide], 1.58 to 15.8 µM; as for `Cc1cc(S(=O)(=O)C2CCCC2)cc(=O)n1[C@H](CC1CCOCC1)C(=O)Nc1ncc(Cl)s1` [Example 37, (R)-N-(5-chlorothiazol-2-yl)-2-(4-(cyclopentylsulfonyl)-6-methyl-2-oxopyridin-1(2H)-yl)-3-(tetrahydro-2H-pyran-4-yl)propanamide], 1.58 to 15.8 µM. As for `Cc1cc(S(=O)(=O)C2CC2)c(Cl)c(=O)n1[C@H](CC1CCCCC1)C(=O)Nc1ncc(Cl)s1` [Example 78, (R)-2-(3-chloro-4-(cyclopropylsulfonyl)-6-methyl-2-oxopyridin-1(2H)-yl)-N-(5-chlorothiazol-2-yl)-3-cyclohexylpropanamide], the figure is 1.58 to 15.8 µM; as for `Cc1cc(S(=O)(=O)C2CC2)cc(=O)n1[C@H](CC1CCCC1)C(=O)Nc1cnccn1` [Example 170, (R)-3-cyclopentyl-2-(4-(cyclopropylsulfonyl)-6-methyl-2-oxopyridin-1(2H)-yl)-N-(pyrazin-2-yl)propanamide], greater than 15.8 µM.

With `Cc1cc(C)cc(CC(C(=O)Nc2ncc(Cl)s2)n2ccc(S(C)(=O)=O)cc2=O)c1` (stereo not drawn) [Example 24, N-(5-chlorothiazol-2-yl)-3-(3,5-dimethylphenyl)-2-(4-(methylsulfonyl)-2-oxopyridin-1(2H)-yl)propanamide], the EC50 was greater than 15.8 µM. As for `Cc1cc(S(=O)(=O)C2CC2)cc(=O)n1[C@H](CC1CCCC1)C(=O)Nc1ncc(F)s1` [Example 163, (R)-3-cyclopentyl-2-(4-(cyclopropylsulfonyl)-6-methyl-2-oxopyridin-1(2H)-yl)-N-(5-fluorothiazol-2-yl)propanamide], the figure is greater than 15.8 µM; as for `CC#CCC(C(=O)Nc1ncc(Cl)s1)n1ccc(S(C)(=O)=O)cc1=O` (stereo not drawn) [Example 26, N-(5-chlorothiazol-2-yl)-2-(4-(methylsulfonyl)-2-oxopyridin-1(2H)-yl)hex-4-ynamide], greater than 15.8 µM; as for `NC(=O)c1ccc(NC(=O)[C@@H](CC2CCOCC2)n2ccc(S(=O)(=O)C3CCCC3)cc2=O)nc1` [Example 47, (R)-6-(2-(4-(cyclopentylsulfonyl)-2-oxopyridin-1(2H)-yl)-3-(tetrahydro-2H-pyran-4-yl)propanamido)nicotinamide], greater than 15.8 µM.

For the compound `Cc1cc(-c2ncco2)cc(=O)n1C(CC1CCCCC1)C(=O)Nc1ncc(Cl)s1` (stereo not drawn) [Example 143, N-(5-chlorothiazol-2-yl)-3-cyclohexyl-2-(6-methyl-4-(oxazol-2-yl)-2-oxopyridin-1(2H)-yl)propanamide], the EC50 is 1.58 to 15.8 µM.

As to `Cc1cc(S(=O)(=O)C2CC2)cc(=O)n1[C@@H](CC1CCCC1)C(=O)Nc1ccc(C(N)=O)cn1` [Example 180, (S)-6-(3-cyclopentyl-2-(4-(cyclopropylsulfonyl)-6-methyl-2-oxopyridin-1(2H)-yl)propanamido)nicotinamide], the EC50 lay in the range of 1.58 to 15.8 µM. In the case of `Cc1cc(-c2cccc(C#N)c2)cc(=O)n1[C@@H](CC1CCCCC1)C(=O)Nc1nccs1` [Example 97, (S)-2-(4-(3-cyanophenyl)-6-methyl-2-oxopyridin-1(2H)-yl)-3-cyclohexyl-N-(thiazol-2-yl)propanamide] it was greater than 15.8 µM.

Turning to `Cc1cc(S(C)(=O)=O)cc(=O)n1C(CC1CCCCC1)C(=O)Nc1nccs1` (stereo not drawn) [Example 3, 3-cyclohexyl-2-(6-methyl-4-(methylsulfonyl)-2-oxopyridin-1(2H)-yl)-N-(thiazol-2-yl)propanamide trifluoroacetic acid salt], the EC50 was 1.58 to 15.8 µM. In the case of `O=C(Nc1ncc(Cl)s1)[C@H](CC1CCOCC1)n1ccc(S(=O)(=O)CC(F)(F)F)cc1=O` [Example 149, (S)-N-(5-chlorothiazol-2-yl)-2-(2-oxo-4-(2,2,2-trifluoroethylsulfonyl)pyridin-1(2H)-yl)-3-(tetrahydro-2H-pyran-4-yl)propanamide] it was 1.58 to 15.8 µM; in that of `CC(=O)Nc1ccc(=O)n(C(CC2CCOCC2)C(=O)Nc2ncc(Cl)s2)c1` (stereo not drawn) [Example 156, 2-(5-acetamido-2-oxopyridin-1(2H)-yl)-N-(5-chlorothiazol-2-yl)-3-(tetrahydro-2H-pyran-4-yl)propanamide], greater than 15.8 µM.

As to `COc1cc(C)n(C(CC2CCCCC2)C(=O)Nc2nccs2)c(=O)c1` (stereo not drawn) [Example 2, 3-cyclohexyl-2-(4-methoxy-6-methyl-2-oxopyridin-1(2H)-yl)-N-(thiazol-2-yl)propanamide trifluoroacetic acid salt], the EC50 was greater than 15.8 µM. In the case of `Cc1cc(S(=O)(=O)C2CCCC2)cc(=O)n1C(CC(C)C)C(=O)Nc1nccs1` (stereo not drawn) [Example 11, 2-(4-(cyclopentylsulfonyl)-6-methyl-2-oxopyridin-1(2H)-yl)-4-methyl-N-(thiazol-2-yl)pentanamide] it was less than 1.58 µM; in that of `COc1ccc2nc(NC(=O)[C@H](CC3CCOCC3)n3c(C)cc(S(=O)(=O)c4ccoc4C)cc3=O)sc2n1` [Example 62, (S)-N-(5-methoxythiazolo[5,4-b]pyridin-2-yl)-2-(6-methyl-4-(2-methylfuran-3-ylsulfonyl)-2-oxopyridin-1(2H)-yl)-3-(tetrahydro-2H-pyran-4-yl)propanamide], 1.58 to 15.8 µM.

Turning to `O=C(Nc1ccc(Cl)cn1)[C@H](CC1CCOCC1)n1ccc(S(=O)(=O)C2CCCC2)cc1=O` [Example 42, (S)-N-(5-chloropyridin-2-yl)-2-(4-(cyclopentylsulfonyl)-2-oxopyridin-1(2H)-yl)-3-(tetrahydro-2H-pyran-4-yl)propanamide], the EC50 was less than 1.58 µM. In the case of `COc1ccc2nc(NC(=O)[C@@H](CC3CCCCC3)n3ccc(S(=O)(=O)C4CC4)cc3=O)sc2n1` [Example 75, (R)-3-cyclohexyl-2-(4-(cyclopropylsulfonyl)-2-oxopyridin-1(2H)-yl)-N-(5-methoxythiazolo[5,4-b]pyridin-2-yl)propanamide] it was 1.58 to 15.8 µM; in that of `CS(=O)(=O)c1ccn(C(Cc2c(Cl)cccc2Cl)C(=O)Nc2ncc(Cl)s2)c(=O)c1` (stereo not drawn) [Example 17, N-(5-chlorothiazol-2-yl)-3-(2,6-dichlorophenyl)-2-(4-(methylsulfonyl)-2-oxopyridin-1(2H)-yl)propanamide], greater than 15.8 µM.

For the origin of these results see patent US8163779B2, “Glucokinase activators” (Takeda San Diego, Inc., priority 2006, dated 2012).
